From patent US10092566B2, “Composition for controlling a gut immunity and use thereof” (SEOUL NATIONAL UNIVERSITY R&DB FOUNDATION, priority 2013, dated 2018)

Test system: DUOX
Assay: In vivo ROS detection in gut epithelia (HOCl-specific R19S staining, ratio of ROS-positive guts)
Parameters: species or system Drosophila
Excerpt: R19S, a recently developed HOCl-specific rhodamine-based dye, was used in this experiment (Chen et al., Chem Commun (Camb) 47, pp. 4373-4375, 2011). R19S was purchased from Futurechem (Seoul, South Korea). […]
Furthermore, to measure the basal level of ROS in germ-free animals, Drosophila monoassociated with each bacterium (C. intestini, A. pomorum, L. plantarum, G. morbifer, G. morbifer-carA::Tn5, L. brevis, or L. brevisΔcarA) were experimented with as disclosed above. A 5% sucrose solution containing 10 μM of R19S was orally administered to the monoassociated Drosophila (13 days old) for 90 minutes.
Following the R19S ingestion, the midguts were dissected and fixed with 4% formaldehyde. The level of HOCl (ROS level) was visualized by LSM700 confocal microscopy (Carl Zeiss).
For all of the experiments, R19S-positive guts in each animal group (n=approx. 20) were measured by each independent experiment, and data was indicated by at least three repeated and independent experiments. The number of R19S-positive guts in regard to the total numbers of gut samples was indicated as the ratio of ROS-positive guts.

Compound: O=c1[nH]cc(F)c(=O)[nH]1 [5-fluorouracil, reference compound]
- ROS-inducing ability / DUOX activation (nucleobases and pyrimidine analogs, 20 nM each, ingestion for 15 minutes): only uracil is capable of activating DUOX

Compound: CC(=O)N[C@@H](CS)C(=O)O [N-acetylcysteine, reference compound]
- DUOX-dependent ROS after coingestion of uracil with N-acetylcysteine (uracil 20 nM, 1.5 hours, plus N-acetylcysteine): could not be detected
